Read-outs that look alike come from different tables or passages of the source.
Biological target: T1, human TRPM8 (Homo sapiens, UniProt Q7Z2W7)
T1 construct: expressed in transfected cells; host or cells: HEK-293/TRPM8 exon1 K3 cells
Test: Patch-clamp assay on TRPM8 channels (HEK-293/TRPM8 cells, menthol-evoked currents)
Assay type: cell-based
Protocol: Patch clamp experiments for compounds 4, 5 and 9 were done as described. HEK-293/TRPM8 exon 1 cells were seeded 3 or 4 days before experiment at a concentration of 4 and 2.5 million cells, respectively, onto a T225 flask. Before each experiment, cells were washed two times with D-PBS without Ca^2+/Mg^2+ (Euroclone, Milan, Italy) and trypsinized with trypsin−EDTA (Sigma-Aldrich; diluted 1/10). Cells were suspended in 25 mL of EX-CELL ACF CHO medium (Sigma-Aldrich, Milan, Italy), 0.625 mL of HEPES (Lonza, Walkersville, USA), 0.25 mL of 100 × penicillin/streptomycin (Lonza, Walkersville, USA), 0.1 mL of soybean trypsin inhibitor 10 mg/mL (Sigma-Aldrich), and placed on the automated patch-clamp platform (QPatch 16X, Sophion Bioscience, Ballerup, Denmark). A stock solution of L-Menthol (1 M, 100% DMSO), used as reference agonist, was freshly prepared. A diluted stock of 300 mM was prepared from the 1 M stock in 100% DMSO, and a final dilution was obtained using the extracellular solution to give a working concentration of 300 μM (1:1000, 0.1% final DMSO concentration). Stock solutions of the testing compounds (10 mM; 100% DMSO; stored at − 20 °C) were freshly prepared, as well. Further dilution of these stock solutions to a final concentration of 300 μM was performed from the 10 mM stock in 100% DMSO, and the working dilutions were performed just before the experiments using the extracellular solution containing 300 μM menthol. The highest concentration tested was 300 nM, with serial dilutions (1:10). DMSO was balanced to keep it constant throughout all the solutions in the same experiment (0.2% final DMSO concentration). Standard whole-cell voltage clamp experiments were performed at room temperature using the multihole technology. For the voltage clamp experiments on human TRPM8, data were sampled at 2 kHz. After establishment of the seal and the passage in the whole cell configuration, the cells were subjected to a voltage ramp (20 ms step at − 60 mV; 100 ms ramp − 60/ + 100 mV; 20 ms step at + 100 mV; return to − 60 mV) every 4 s. The antagonistic effect on human TRPM8 current of target compounds was evaluated after application of the agonist (menthol, 300 μM), in the absence or presence of increasing concentrations of the compound under investigation. Outward current evoked by the voltage ramp, measured in the step at + 100 mV were measured. The intracellular solution contained (mM) 135 CsCl, 10 BAPTA, 10 HEPES, 4 Na2ATP (pH 7.2 with CsOH). The extracellular solution contained (mM) 145 NaCl, 4 KCl, 1 MgCl2, 2 CaCl2, 10 HEPES, 10 glucose (pH 7.4 with NaOH). TRPM8 modulation by final compounds 3 and 6 has been previously determined by patch clamp measurements[29],[30].

T1 sequence (Q7Z2W7 whole entry): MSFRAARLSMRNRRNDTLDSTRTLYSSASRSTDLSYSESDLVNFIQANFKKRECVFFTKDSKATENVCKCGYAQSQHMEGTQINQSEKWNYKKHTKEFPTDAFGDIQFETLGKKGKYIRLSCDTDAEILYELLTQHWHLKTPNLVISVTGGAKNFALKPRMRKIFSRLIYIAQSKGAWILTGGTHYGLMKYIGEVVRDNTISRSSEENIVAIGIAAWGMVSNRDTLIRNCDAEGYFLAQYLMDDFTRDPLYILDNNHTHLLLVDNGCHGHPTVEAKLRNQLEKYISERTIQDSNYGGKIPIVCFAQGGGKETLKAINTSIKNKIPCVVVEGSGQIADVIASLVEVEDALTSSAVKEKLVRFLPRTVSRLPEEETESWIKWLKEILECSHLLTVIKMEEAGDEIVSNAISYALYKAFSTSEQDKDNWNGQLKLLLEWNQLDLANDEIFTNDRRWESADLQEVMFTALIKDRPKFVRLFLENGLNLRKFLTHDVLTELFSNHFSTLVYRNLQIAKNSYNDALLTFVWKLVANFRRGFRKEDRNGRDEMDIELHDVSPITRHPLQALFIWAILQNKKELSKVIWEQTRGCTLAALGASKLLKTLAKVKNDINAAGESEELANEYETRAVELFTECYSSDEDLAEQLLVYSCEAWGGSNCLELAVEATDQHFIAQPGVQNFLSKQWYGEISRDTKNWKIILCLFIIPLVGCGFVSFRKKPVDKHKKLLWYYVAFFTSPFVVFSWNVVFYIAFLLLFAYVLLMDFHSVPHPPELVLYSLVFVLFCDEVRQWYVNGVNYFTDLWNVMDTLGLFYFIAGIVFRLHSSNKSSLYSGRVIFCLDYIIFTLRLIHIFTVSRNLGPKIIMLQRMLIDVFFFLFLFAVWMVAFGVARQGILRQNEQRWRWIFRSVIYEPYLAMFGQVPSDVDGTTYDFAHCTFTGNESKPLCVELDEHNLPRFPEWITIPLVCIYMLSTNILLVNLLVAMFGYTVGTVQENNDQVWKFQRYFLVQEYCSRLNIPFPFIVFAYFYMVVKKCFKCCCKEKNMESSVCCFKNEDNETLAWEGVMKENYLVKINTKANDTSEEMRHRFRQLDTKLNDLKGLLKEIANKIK

c1ccc(COc2ccc3[nH]cc(CCNCc4ccc(Oc5ccccc5)cc4)c3c2)cc1 [Compound 4]
IC50 (300 µM menthol-evoked currents, read-out: Potency IC50): 204 ± 15 nM | IC50 (TRPM8 antagonist, menthol-evoked currents, one range for both compounds, read-out: IC50): 204 to 340 nM | inhibitory effect on menthol-evoked TRPM8 currents (dependence on concentration): concentration-dependent
